Results on 15 molecules are retold here after ChEMBL document CHEMBL3991601, “The target landscape of clinical kinase drugs” (Science, 2017).

Active and inactive are the calls of the source. For most assays here, no stated cut-off is given here; in the data, actives have a measured Kd and inactives only a lower limit. Bounds are passed on as bounds.

In assay [1] the target is T1, Serine/threonine-protein kinase A-Raf (Homo sapiens, UniProt P10398).
T1 sequence (P10398 whole entry): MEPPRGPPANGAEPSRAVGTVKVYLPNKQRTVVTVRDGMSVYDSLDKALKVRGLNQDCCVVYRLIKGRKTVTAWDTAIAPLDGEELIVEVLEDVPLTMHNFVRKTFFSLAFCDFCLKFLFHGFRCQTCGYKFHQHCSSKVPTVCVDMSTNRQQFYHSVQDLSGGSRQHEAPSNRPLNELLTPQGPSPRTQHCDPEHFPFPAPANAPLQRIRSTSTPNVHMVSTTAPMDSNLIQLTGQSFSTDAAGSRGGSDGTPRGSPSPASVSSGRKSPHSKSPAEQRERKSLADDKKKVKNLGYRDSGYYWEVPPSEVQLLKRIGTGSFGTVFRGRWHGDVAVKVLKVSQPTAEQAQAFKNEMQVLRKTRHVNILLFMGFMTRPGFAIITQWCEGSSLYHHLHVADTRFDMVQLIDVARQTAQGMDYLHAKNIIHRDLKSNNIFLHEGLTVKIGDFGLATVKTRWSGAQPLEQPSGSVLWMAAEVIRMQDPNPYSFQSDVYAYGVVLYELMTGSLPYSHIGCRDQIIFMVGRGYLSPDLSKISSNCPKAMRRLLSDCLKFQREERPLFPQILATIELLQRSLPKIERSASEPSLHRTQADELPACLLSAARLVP

Assay [2] deals with T2, Bone morphogenetic protein receptor type-2 (Homo sapiens, UniProt Q13873).
T2 sequence (Q13873 whole entry): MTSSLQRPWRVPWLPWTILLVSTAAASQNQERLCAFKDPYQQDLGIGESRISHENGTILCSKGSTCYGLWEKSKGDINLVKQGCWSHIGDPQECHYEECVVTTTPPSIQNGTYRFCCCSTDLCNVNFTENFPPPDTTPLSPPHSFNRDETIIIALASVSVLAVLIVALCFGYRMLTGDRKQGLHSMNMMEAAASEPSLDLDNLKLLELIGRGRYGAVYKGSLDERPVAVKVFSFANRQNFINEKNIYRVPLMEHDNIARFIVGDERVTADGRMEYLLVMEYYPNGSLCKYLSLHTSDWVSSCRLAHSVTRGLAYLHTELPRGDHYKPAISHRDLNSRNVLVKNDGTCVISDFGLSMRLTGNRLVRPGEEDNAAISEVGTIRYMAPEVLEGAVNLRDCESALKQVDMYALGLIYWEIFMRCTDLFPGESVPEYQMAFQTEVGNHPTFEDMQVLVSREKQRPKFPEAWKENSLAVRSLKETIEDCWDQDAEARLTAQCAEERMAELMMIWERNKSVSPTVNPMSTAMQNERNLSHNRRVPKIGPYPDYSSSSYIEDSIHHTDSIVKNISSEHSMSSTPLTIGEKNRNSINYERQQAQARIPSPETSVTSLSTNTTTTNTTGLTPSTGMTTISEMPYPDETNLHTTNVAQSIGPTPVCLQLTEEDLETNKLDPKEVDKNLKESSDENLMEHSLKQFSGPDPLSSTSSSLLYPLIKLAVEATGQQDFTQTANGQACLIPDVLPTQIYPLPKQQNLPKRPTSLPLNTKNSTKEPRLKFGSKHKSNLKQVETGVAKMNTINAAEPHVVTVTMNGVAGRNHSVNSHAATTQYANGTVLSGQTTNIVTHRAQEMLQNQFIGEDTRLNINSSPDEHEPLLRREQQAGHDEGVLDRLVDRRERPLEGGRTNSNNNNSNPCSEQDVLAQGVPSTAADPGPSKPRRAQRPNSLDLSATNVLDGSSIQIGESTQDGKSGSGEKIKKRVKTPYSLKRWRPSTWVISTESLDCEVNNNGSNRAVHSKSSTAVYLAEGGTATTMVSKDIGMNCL

The target of assay [3] is Serine/threonine-protein kinase/endoribonuclease IRE1 (Homo sapiens, UniProt O75460).
The target of assay [4] is Fibroblast growth factor receptor 1 (Homo sapiens, UniProt P11362).
Another assay deals with T3, Heme oxygenase 2 (Homo sapiens, UniProt P30519).
T3 sequence (P30519 whole entry): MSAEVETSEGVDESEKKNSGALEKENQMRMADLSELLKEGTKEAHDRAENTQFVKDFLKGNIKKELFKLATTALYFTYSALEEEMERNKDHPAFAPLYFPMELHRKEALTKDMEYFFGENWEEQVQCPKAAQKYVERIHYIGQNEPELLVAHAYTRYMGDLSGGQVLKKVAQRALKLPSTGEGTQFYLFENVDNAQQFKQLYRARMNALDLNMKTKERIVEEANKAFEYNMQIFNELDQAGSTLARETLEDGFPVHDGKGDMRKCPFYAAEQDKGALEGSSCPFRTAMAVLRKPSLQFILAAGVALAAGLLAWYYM

The next assay concerns the target LIM domain kinase 2 (Homo sapiens, UniProt P53671).
Assay [5] concerns the target Serine/threonine-protein kinase PAK 4 (Homo sapiens, UniProt O96013).
Assay [6] deals with Proto-oncogene tyrosine-protein kinase Src (Homo sapiens, UniProt P12931).
Assay [7] deals with T4, Serine/threonine-protein kinase ULK3 (Homo sapiens, UniProt Q6PHR2).
T4 sequence (Q6PHR2 whole entry): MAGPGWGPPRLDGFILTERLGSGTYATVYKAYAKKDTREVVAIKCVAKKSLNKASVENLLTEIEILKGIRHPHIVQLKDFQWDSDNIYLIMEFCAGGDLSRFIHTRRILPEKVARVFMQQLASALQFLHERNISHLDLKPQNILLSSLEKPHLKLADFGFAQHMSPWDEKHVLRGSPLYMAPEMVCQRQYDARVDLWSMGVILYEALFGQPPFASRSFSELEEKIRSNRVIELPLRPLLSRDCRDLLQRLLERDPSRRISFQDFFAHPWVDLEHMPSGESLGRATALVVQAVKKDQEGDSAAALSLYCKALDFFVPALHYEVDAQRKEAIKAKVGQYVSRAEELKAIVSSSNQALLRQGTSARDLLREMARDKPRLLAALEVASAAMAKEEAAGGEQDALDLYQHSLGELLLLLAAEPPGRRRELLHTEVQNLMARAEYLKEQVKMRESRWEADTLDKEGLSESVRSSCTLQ

The target of assay [8] is Chromodomain-helicase-DNA-binding protein 4 (Homo sapiens, UniProt Q14839).
Chain of Chromodomain-helicase-DNA-binding protein 4 (Q14839 whole entry): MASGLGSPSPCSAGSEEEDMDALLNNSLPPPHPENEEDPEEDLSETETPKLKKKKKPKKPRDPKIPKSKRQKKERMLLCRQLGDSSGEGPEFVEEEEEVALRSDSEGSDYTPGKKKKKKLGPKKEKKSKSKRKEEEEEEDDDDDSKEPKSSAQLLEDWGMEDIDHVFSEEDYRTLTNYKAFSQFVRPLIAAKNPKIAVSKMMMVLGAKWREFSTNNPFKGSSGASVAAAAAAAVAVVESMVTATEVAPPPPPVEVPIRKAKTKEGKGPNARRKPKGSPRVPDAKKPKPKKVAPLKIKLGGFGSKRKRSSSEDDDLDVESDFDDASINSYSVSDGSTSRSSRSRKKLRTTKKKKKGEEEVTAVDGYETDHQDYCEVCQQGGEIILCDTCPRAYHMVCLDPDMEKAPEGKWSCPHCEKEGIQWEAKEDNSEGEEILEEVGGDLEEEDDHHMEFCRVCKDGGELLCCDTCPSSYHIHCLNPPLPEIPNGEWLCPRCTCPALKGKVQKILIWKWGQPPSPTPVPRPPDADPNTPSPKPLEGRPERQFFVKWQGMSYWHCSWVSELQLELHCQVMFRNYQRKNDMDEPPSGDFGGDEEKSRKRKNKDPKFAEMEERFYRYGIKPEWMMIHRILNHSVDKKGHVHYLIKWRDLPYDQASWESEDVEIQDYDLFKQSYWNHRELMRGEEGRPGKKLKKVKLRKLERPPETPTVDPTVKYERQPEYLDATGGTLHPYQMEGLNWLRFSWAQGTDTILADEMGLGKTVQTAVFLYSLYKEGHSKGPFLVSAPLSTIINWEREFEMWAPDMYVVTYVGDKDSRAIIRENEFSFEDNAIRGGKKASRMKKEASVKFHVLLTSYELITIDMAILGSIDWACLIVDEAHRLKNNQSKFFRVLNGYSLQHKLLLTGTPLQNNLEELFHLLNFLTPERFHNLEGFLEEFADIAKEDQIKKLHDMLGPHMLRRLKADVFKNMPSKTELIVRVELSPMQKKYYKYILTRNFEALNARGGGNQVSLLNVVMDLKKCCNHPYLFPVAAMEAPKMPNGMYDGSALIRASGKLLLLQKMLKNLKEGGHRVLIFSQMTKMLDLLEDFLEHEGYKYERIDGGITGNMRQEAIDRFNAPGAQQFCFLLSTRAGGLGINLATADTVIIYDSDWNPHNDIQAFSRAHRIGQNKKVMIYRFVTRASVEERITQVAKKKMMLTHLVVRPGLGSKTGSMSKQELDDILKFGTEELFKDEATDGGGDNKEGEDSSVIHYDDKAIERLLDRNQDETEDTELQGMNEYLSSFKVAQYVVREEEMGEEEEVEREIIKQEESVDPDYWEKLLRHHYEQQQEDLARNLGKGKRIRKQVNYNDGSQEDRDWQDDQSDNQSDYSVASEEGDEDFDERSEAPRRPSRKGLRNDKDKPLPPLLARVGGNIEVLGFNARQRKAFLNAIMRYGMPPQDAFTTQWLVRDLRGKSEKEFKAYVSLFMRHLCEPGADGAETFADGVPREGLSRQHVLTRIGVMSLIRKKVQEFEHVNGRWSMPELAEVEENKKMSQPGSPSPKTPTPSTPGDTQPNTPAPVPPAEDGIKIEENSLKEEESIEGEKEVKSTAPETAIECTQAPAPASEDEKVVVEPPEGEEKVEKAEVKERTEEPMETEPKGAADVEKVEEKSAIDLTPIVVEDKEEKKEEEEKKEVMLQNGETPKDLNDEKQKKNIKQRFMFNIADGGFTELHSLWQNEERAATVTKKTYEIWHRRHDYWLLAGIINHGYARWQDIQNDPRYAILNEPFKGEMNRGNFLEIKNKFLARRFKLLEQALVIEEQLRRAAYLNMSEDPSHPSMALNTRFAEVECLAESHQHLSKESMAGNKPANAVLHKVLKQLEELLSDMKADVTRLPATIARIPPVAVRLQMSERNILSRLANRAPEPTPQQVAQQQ

Chain of Serine/threonine-protein kinase PAK 4 (O96013 whole entry): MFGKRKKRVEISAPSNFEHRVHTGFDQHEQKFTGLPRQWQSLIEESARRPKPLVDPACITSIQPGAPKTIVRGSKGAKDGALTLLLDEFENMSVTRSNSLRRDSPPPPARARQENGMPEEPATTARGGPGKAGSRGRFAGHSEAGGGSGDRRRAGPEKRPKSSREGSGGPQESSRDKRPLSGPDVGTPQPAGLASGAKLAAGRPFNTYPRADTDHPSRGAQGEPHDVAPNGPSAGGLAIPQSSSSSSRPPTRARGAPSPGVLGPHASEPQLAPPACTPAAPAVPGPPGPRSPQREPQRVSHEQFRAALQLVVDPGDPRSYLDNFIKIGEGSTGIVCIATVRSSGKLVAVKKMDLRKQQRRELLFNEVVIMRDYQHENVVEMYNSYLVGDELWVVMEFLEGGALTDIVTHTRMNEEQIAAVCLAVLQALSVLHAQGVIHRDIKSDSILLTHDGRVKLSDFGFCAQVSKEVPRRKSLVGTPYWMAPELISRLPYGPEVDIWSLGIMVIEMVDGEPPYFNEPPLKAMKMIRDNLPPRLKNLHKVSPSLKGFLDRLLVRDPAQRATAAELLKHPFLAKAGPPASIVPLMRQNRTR
Chain of Proto-oncogene tyrosine-protein kinase Src (P12931 2-536 limits assumed): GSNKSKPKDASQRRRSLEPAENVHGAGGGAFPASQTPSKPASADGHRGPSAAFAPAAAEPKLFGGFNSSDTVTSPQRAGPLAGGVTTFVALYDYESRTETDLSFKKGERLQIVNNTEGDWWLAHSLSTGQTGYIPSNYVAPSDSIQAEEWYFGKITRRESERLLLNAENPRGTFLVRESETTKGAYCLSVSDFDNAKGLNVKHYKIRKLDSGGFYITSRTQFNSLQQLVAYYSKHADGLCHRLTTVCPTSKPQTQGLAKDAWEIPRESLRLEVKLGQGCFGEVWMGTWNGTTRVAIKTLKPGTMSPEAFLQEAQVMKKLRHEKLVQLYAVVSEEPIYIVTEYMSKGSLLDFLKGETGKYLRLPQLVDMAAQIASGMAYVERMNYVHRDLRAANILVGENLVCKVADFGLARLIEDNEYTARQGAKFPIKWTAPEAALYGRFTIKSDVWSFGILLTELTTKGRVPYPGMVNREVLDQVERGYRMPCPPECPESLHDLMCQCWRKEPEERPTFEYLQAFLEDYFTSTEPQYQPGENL
Chain of Fibroblast growth factor receptor 1 (P11362 whole entry): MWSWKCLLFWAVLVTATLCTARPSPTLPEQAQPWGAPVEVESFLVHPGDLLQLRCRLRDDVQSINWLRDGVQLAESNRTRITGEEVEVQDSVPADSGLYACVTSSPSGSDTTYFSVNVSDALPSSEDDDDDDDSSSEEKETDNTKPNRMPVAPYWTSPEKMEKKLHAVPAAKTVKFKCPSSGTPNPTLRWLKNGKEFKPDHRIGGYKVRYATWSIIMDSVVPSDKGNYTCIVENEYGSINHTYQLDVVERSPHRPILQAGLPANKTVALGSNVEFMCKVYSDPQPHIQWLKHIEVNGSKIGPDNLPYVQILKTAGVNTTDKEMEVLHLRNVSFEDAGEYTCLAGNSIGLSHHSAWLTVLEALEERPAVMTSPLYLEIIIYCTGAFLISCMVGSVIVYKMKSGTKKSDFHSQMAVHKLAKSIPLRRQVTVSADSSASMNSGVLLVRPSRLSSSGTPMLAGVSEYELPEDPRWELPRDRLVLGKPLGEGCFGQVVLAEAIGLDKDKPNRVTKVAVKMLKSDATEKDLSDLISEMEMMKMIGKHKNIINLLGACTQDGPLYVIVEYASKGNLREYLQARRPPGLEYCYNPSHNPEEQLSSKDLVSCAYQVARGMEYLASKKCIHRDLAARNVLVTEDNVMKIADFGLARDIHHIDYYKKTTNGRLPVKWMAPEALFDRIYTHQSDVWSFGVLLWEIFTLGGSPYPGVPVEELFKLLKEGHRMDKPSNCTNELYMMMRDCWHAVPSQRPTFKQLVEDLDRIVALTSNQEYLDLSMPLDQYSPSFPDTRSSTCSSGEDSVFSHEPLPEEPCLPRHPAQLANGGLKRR
Chain of LIM domain kinase 2 (P53671 whole entry, the tested form may be a part): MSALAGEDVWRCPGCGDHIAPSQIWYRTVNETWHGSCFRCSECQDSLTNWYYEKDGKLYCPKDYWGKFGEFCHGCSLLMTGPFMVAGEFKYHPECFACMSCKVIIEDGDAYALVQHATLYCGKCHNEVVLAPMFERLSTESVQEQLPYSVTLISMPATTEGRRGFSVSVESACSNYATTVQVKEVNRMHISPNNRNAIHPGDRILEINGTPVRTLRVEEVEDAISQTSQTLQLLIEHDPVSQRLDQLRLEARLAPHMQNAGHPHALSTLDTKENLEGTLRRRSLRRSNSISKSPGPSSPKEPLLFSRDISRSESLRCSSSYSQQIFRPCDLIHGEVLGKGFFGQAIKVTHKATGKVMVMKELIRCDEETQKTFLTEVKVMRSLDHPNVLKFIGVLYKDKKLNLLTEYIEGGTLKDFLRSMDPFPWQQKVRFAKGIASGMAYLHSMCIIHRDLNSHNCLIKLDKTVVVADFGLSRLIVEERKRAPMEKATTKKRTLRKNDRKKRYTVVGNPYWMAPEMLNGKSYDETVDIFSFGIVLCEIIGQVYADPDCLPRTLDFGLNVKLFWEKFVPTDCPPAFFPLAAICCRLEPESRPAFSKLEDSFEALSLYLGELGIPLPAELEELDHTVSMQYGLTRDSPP

In general, Kd refers to the free concentration of one partner at which half of the binding sites on the other are occupied at equilibrium, for simple one-to-one binding. For the molecule `C[C@@H](Nc1cc(F)cc(F)c1)c1cc(C(=O)N(C)C)cc2c(=O)cc(N3CCOCC3)oc12` [AZD-8186], the Kd (in [1]; in assay [2]; in assay [3]; in assay [4]; at Heme oxygenase 2; on LIM domain kinase 2) was > 30 µM (inactive) each time. Moreover, the Kd in [5], in assay [6] and in [7] was > 30 µM (inactive) in each case.

For the molecule `Cc1nc(N)sc1-c1ccnc(Nc2ccc(N3CCOCC3)cc2)n1` [CYC-116], the Kd in [1] was > 30 µM (inactive); in assay [8] it was > 30 µM (inactive); in assay [3], > 30 µM (inactive); at Heme oxygenase 2, > 30 µM (inactive); at LIM domain kinase 2 it was 2.55 µM (active); in [7], 0.801 µM (active).

As for `Cc1cc(Nc2cc(N3CCN(C)CC3)nc(/C=C/c3ccccc3)n2)n[nH]1` [ENMD-2076], the Kd was > 30 µM (inactive) in [1]; > 30 µM (inactive) in assay [8]; > 30 µM (inactive) in assay [3]; > 30 µM (inactive) at Heme oxygenase 2; 0.476 µM (active) in assay [7].

On to `O=C(Nc1cccc(Cl)c1)Nc1ncc(CCNc2ncnc3ccsc23)s1` [SNS-314], for which the Kd (in [1]; in assay [2]; in [8]; on Heme oxygenase 2; at LIM domain kinase 2; in [7]) was > 30 µM (inactive) throughout.

`Nc1nc(N)c2nc(-c3cccc(O)c3)c(-c3cccc(O)c3)nc2n1` [TG100-115]: the Kd (in assay [1]; in assay [8]; at Heme oxygenase 2) was > 30 µM (inactive) throughout.

`CN1CCN(c2ccc3nc(-c4c(N)c5c(F)cccc5[nH]c4=O)[nH]c3c2)CC1` [DOVITINIB]: the Kd (in assay [1]; in [8]; on Heme oxygenase 2) was > 30 µM (inactive) in each case.

As for `COc1cc2nccc(Oc3ccc(NC(=O)Nc4cc(C)on4)c(Cl)c3)c2cc1OC` [TIVOZANIB], the Kd (in assay [2]; in [8]; in [3]; on Heme oxygenase 2; on LIM domain kinase 2; in [5]) was > 30 µM (inactive) in each case. Also, the Kd in assay [7] was > 30 µM (inactive).

Turning to `CCc1cnn2c(NCc3ccc[n+]([O-])c3)cc(N3CCCC[C@H]3CCO)nc12` [DINACICLIB], the Kd in assay [1] was > 30 µM (inactive); in assay [2], > 30 µM (inactive); in [8], 0.003 µM; in assay [3] it was > 30 µM (inactive); at Heme oxygenase 2, > 30 µM (inactive); at LIM domain kinase 2, > 30 µM (inactive). For the same molecule, the Kd in assay [6] and in [7] was > 30 µM (inactive) each time.

Turning to `OCCn1cc(-c2cnc3nnn(Cc4ccc5ncccc5c4)c3n2)cn1` [PF-04217903], the Kd (in assay [1]; in assay [2]; in assay [8]; in assay [3]; on Heme oxygenase 2; on LIM domain kinase 2) was > 30 µM (inactive) each time. Besides, the Kd in assay [6] and in assay [7] was > 30 µM (inactive) throughout.

With `COCCNCc1ccc(-c2cc3nccc(Oc4ccc(NC(=S)NC(=O)Cc5ccc(F)cc5)cc4F)c3s2)nc1` [GLESATINIB], the Kd (in assay [1]; in assay [2]; in [8]; in [3]; in assay [4]; at Heme oxygenase 2) was > 30 µM (inactive) in each case. For the same molecule, the Kd (on LIM domain kinase 2; in [5]; in assay [7]) was > 30 µM (inactive) throughout.

`COc1cc(CCc2cc(NC(=O)c3ccc(N4C[C@@H](C)N[C@@H](C)C4)cc3)n[nH]2)cc(OC)c1` [AZD-4547]: the Kd (in [1]; in assay [2]; in assay [8]; in [3]; on Heme oxygenase 2; at LIM domain kinase 2) was > 30 µM (inactive) each time. Besides, the Kd in [5], in [6] and in [7] was > 30 µM (inactive) each time.

In the case of `CCn1c(-c2nonc2N)nc2c(C#CC(C)(C)O)ncc(OC[C@H]3CCCNC3)c21` [GSK-690693], the Kd (in [1]; in [8]; on Heme oxygenase 2) was > 30 µM (inactive) each time.

`COc1cc2nccc(Oc3ccc(NC(=O)NC4CC4)c(Cl)c3)c2cc1C(N)=O` [LENVATINIB]: the Kd in assay [1] is > 30 µM (inactive); in [2], > 30 µM (inactive); in assay [8] it was > 30 µM (inactive); in assay [3], 2.24 µM; in assay [4], > 30 µM (inactive); at Heme oxygenase 2, > 30 µM (inactive). Also, the Kd (on LIM domain kinase 2; in [5]; in assay [7]) was > 30 µM (inactive) each time.

Consider `Cc1cn(-c2cc(NC(=O)c3ccc(C)c(Nc4nccc(-c5cccnc5)n4)c3)cc(C(F)(F)F)c2)cn1` [NILOTINIB], for which the Kd (in [1]; in assay [8]; on Heme oxygenase 2) was > 30 µM (inactive) each time.

As for `CNC(=O)c1cc(Oc2ccc(NC(=O)Nc3ccc(Cl)c(C(F)(F)F)c3)c(F)c2)ccn1` [REGORAFENIB], the Kd (in assay [1]; in [2]; in [8]; in assay [3]; at Heme oxygenase 2; on LIM domain kinase 2) was > 30 µM (inactive) each time. Moreover, the Kd in assay [5], in assay [6] and in assay [7] was > 30 µM (inactive) in each case.
